In PubChem BioAssay (NCI):
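Test compounds were applied to cells in 96-well plates for 48 hours at 5 doses. At the GI50, growth is halved. TGI is the concentration that stops growth completely.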

Legend:
Assay in all cases: NCI-60 cell line screen, 48 h
[1] = tested on: 786-0 renal
[2] = tested on: A498 renal
[3] = tested on: A549 NSCLC
[4] = tested on: ACHN renal
[5] = tested on: BT-549 breast
[6] = tested on: CAKI-1 renal
[7] = tested on: CCRF-CEM leukemia
[8] = tested on: COLO 205 colon
[9] = tested on: DU-145 prostate
[10] = tested on: EKVX NSCLC
[11] = tested on: HCC-2998 colon
[12] = tested on: HCT-116 colon
[13] = tested on: HCT-15 colon
[14] = tested on: HL-60(TB) leukemia
[15] = tested on: HOP-62 NSCLC
[16] = tested on: HOP-92 NSCLC
[17] = tested on: HS 578T breast
[18] = tested on: HT29 colon
[19] = tested on: IGROV1 ovarian
[20] = tested on: K-562 leukemia
[21] = tested on: KM12 colon
[22] = tested on: LOX IMVI melanoma
[23] = tested on: M14 melanoma
[24] = tested on: MCF7 breast
[25] = tested on: MDA-MB-231 breast
[26] = tested on: MDA-MB-435
[27] = tested on: MOLT-4 leukemia
[28] = tested on: NCI-H226 lung
[29] = tested on: NCI-H23 lung
[30] = tested on: NCI-H460 lung
[31] = tested on: NCI-H522 lung
[32] = tested on: NCI/ADR-RES ovarian
[33] = tested on: OVCAR-3 ovarian
[34] = tested on: OVCAR-4 ovarian
[35] = tested on: OVCAR-5 ovarian
[36] = tested on: OVCAR-8 ovarian
[37] = tested on: PC-3 prostate
[38] = tested on: RPMI-8226 leukemia
[39] = tested on: RXF 393 renal
[40] = tested on: SF-268 CNS
[41] = tested on: SF-295 CNS
[42] = tested on: SF-539 CNS
[43] = tested on: SK-MEL-2 melanoma
[44] = tested on: SK-MEL-28 melanoma
[45] = tested on: SK-MEL-5 melanoma
[46] = tested on: SK-OV-3 ovarian
[47] = tested on: SN12C renal
[48] = tested on: SNB-19 CNS
[49] = tested on: SNB-75 CNS
[50] = tested on: SR leukemia
[51] = tested on: SW-620 colon
[52] = tested on: T-47D breast
[53] = tested on: TK-10 renal
[54] = tested on: U251 CNS
[55] = tested on: UACC-257 melanoma
[56] = tested on: UACC-62 melanoma
[57] = tested on: UO-31 renal

Question: Which results are given for N#Cc1c(N/N=C\c2ccc(Cl)cc2)nc(N)nc1N1CCOCC1?
Answer: GI50 [1]: 67.1 µM; TGI [1]: > 100 µM; GI50 [2]: 25.5 µM; TGI [2]: 69.2 µM; GI50 [3]: 29.6 µM; TGI [3]: > 100 µM; GI50 [4]: 23.1 µM; TGI [4]: 92.6 µM; GI50 [5]: > 100 µM; TGI [5]: > 100 µM; GI50 [6]: 43.3 µM; TGI [6]: > 100 µM; GI50 [7]: 25.8 µM; TGI [7]: 78.9 µM; GI50 [8]: 66.2 µM; TGI [8]: > 100 µM; GI50 [9]: 28.8 µM; TGI [9]: > 100 µM; GI50 [10]: 93.9 µM; TGI [10]: > 100 µM; GI50 [11]: 22 µM; TGI [11]: > 100 µM; GI50 [12]: 29.7 µM; TGI [12]: > 100 µM; GI50 [13]: 26.7 µM; TGI [13]: 97.3 µM; GI50 [14]: 9.84 µM; TGI [14]: 27.2 µM; GI50 [15]: 86.6 µM; TGI [15]: > 100 µM; GI50 [16]: 36.3 µM; TGI [16]: > 100 µM; GI50 [17]: 41.1 µM; TGI [17]: > 100 µM; GI50 [18]: 26.7 µM; TGI [18]: > 100 µM; GI50 [19]: 26 µM; TGI [19]: 97.4 µM; GI50 [20]: 13 µM; TGI [20]: 32.3 µM; GI50 [21]: 36.1 µM; TGI [21]: > 100 µM; GI50 [22]: 21.6 µM; TGI [22]: 62.4 µM; GI50 [23]: 67.4 µM; TGI [23]: > 100 µM; GI50 [24]: 77.3 µM; TGI [24]: > 100 µM; GI50 [25]: 25.3 µM; TGI [25]: > 100 µM; GI50 [26]: 35 µM; TGI [26]: > 100 µM; GI50 [27]: 13.6 µM; TGI [27]: 34.4 µM; GI50 [28]: 53.6 µM; TGI [28]: > 100 µM; GI50 [29]: 87.8 µM; TGI [29]: > 100 µM; GI50 [30]: 87.7 µM; TGI [30]: > 100 µM; GI50 [31]: 32.5 µM; TGI [31]: > 100 µM; GI50 [32]: 43.1 µM; TGI [32]: > 100 µM; GI50 [33]: 22.5 µM; TGI [33]: 60.5 µM; GI50 [34]: 94.4 µM; TGI [34]: > 100 µM; GI50 [35]: > 100 µM; TGI [35]: > 100 µM; GI50 [36]: 31.4 µM; TGI [36]: > 100 µM; GI50 [37]: 24.6 µM; TGI [37]: > 100 µM; GI50 [38]: 16.4 µM; TGI [38]: 44.3 µM; GI50 [39]: 15 µM; TGI [39]: > 100 µM; GI50 [40]: > 100 µM; TGI [40]: > 100 µM; GI50 [41]: 33.2 µM; TGI [41]: > 100 µM; GI50 [42]: 75.1 µM; TGI [42]: > 100 µM; GI50 [43]: 99.2 µM; TGI [43]: > 100 µM; GI50 [44]: > 100 µM; TGI [44]: > 100 µM; GI50 [45]: 19 µM; TGI [45]: > 100 µM; GI50 [46]: > 100 µM; TGI [46]: > 100 µM; GI50 [47]: 55.1 µM; TGI [47]: > 100 µM; GI50 [48]: > 100 µM; TGI [48]: > 100 µM; GI50 [49]: 57.3 µM; TGI [49]: > 100 µM; GI50 [50]: 11.7 µM; TGI [50]: 28.9 µM; GI50 [51]: 47.1 µM; TGI [51]: > 100 µM; GI50 [52]: > 100 µM; TGI [52]: > 100 µM; GI50 [53]: 40.1 µM; TGI [53]: > 100 µM; GI50 [54]: 40.4 µM; TGI [54]: > 100 µM; GI50 [55]: 32.2 µM; TGI [55]: > 100 µM; GI50 [56]: 25.4 µM; TGI [56]: > 100 µM; GI50 [57]: 39.6 µM; TGI [57]: > 100 µM
